Measured values reported in ChEMBL document CHEMBL1201862, “PubChem BioAssay data set” (2004).
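A five-concentration, 48-hour dose response in 96-well plates underlies each endpoint, interpolated linearly between surrounding concentrations. Here, GI50 denotes the concentration required for 50% inhibition of growth.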 The source made the active and inactive calls. Rule as the data show it: active = GI50 up to about 1.1 µM and inactive = higher.

Legend:
Assay in all cases: NCI-60 cell line screen, 48 h
KM12 = test system: KM12
SNB-75 = test system: SNB-75
CAKI-1 = test system: CAKI-1
HOP-62 = test system: HOP-62
RPMI-8226 = test system: RPMI-8226
NCI-H23 = test system: NCI-H23
SF-268 = test system: SF-268
SK-MEL-28 = test system: SK-MEL-28
Hs-578T = test system: Hs-578T
K562 = test system: K562
MOLT-4 = test system: MOLT-4
NCI-H522 = test system: NCI-H522
DU-145 = test system: DU-145
SK-MEL-5 = test system: SK-MEL-5
HCC 2998 = test system: HCC 2998
UACC-62 = test system: UACC-62
NCI-H226 = test system: NCI-H226
MDA-MB-435 = test system: MDA-MB-435
HL-60 = test system: HL-60
NCI-H460 = test system: NCI-H460

Compound | GI50 (KM12) | GI50 (SNB-75) | GI50 (CAKI-1) | GI50 (HOP-62) | GI50 (RPMI-8226) | GI50 (NCI-H23) | GI50 (SF-268) | GI50 (SK-MEL-28) | GI50 (Hs-578T) | GI50 (K562) | GI50 (MOLT-4) | GI50 (NCI-H522) | GI50 (DU-145) | GI50 (SK-MEL-5) | GI50 (HCC 2998) | GI50 (UACC-62) | GI50 (NCI-H226) | GI50 (MDA-MB-435) | GI50 (HL-60) | GI50 (NCI-H460)
COc1ccc(/C=C/c2sc3ccccc3[n+]2CCCCI)cc1OC | 6.25 µM (inactive) | 5.64 µM (inactive) | > 10 µM (inactive) | > 10 µM (inactive) | 7.33 µM (inactive) | > 10 µM (inactive) | > 10 µM (inactive) | > 10 µM (inactive) | > 10 µM (inactive) | 3.25 µM (inactive) | 5.87 µM (inactive) | 8.87 µM (inactive) | > 10 µM (inactive) | 5.55 µM (inactive) | > 10 µM (inactive) | 6.32 µM (inactive) | > 10 µM (inactive) | 4.57 µM (inactive) | 4.46 µM (inactive) | > 10 µM (inactive)
CS(=O)(=O)Nc1ccc2c(c1)oc(=O)c1ccccc12 | > 100 µM (inactive) | > 100 µM (inactive) | > 100 µM (inactive) | > 100 µM (inactive) | > 100 µM (inactive) | > 100 µM (inactive) | 13.3 µM (inactive) | > 100 µM (inactive) | > 100 µM (inactive) | > 100 µM (inactive) | > 100 µM (inactive) | > 100 µM (inactive) | > 100 µM (inactive) | > 100 µM (inactive) | > 100 µM (inactive) | 65 µM (inactive) | > 100 µM (inactive) | > 100 µM (inactive) | > 100 µM (inactive) | > 100 µM (inactive)
CCOC(=O)/C=C(\C(=O)OCC)n1cnc2c(N)ncnc21 | 14.8 µM (inactive) | 12.4 µM (inactive) | 1.4 µM (inactive) | 22.6 µM (inactive) | 2.02 µM (inactive) | 13.7 µM (inactive) | 15.3 µM (inactive) | 13.6 µM (inactive) | 19.7 µM (inactive) | 1.99 µM (inactive) | 2.44 µM (inactive) | 1.6 µM (inactive) | 15.6 µM (inactive) | 14.7 µM (inactive) | 16 µM (inactive) | 10.7 µM (inactive) | 5.97 µM (inactive) | 11.8 µM (inactive) | 0.931 µM (active) | 17.9 µM (inactive)
C/C(=N\O)c1cccc[n+]1Cc1ccccc1 | > 100 µM (inactive) | > 100 µM (inactive) | > 100 µM (inactive) | > 100 µM (inactive) | > 100 µM (inactive) | > 100 µM (inactive) | > 100 µM (inactive) | > 100 µM (inactive) | > 100 µM (inactive) | > 100 µM (inactive) | > 100 µM (inactive) | > 100 µM (inactive) | > 100 µM (inactive) | > 100 µM (inactive) | > 100 µM (inactive) | > 100 µM (inactive) | > 100 µM (inactive) | > 100 µM (inactive) | > 100 µM (inactive) | > 100 µM (inactive)
CCSc1nc(N2CCCC2)s[s+]1.[O-][Cl+3]([O-])([O-])[O-] | 39.4 µM (inactive) | 24.3 µM (inactive) | 43 µM (inactive) | 56.5 µM (inactive) | 0.318 µM (active) | 46.8 µM (inactive) | 40.2 µM (inactive) | 36.5 µM (inactive) | 40.6 µM (inactive) | 1 µM (active) | 3.29 µM (inactive) | 0.346 µM (active) | > 100 µM (inactive) | 0.08 µM (active) | 73.6 µM (inactive) | 0.684 µM (active) | 63.4 µM (inactive) | 13.6 µM (inactive) | 2.92 µM (inactive) | 0.225 µM (active)
CC1(C)[C@H]2Cc3cc(-c4cc5c(cn4)[C@@H]4C[C@H]([C@@H]5[C@@H]5c6cc(-c7cc8c(cn7)[C@@H]7C[C@H](C8)C7(C)C)ncc6[C@@H]6C[C@H]5C6(C)C)C4(C)C)ncc3[C@@H]1C2 | > 100 µM (inactive) | > 100 µM (inactive) | > 100 µM (inactive) | > 100 µM (inactive) | > 100 µM (inactive) | > 100 µM (inactive) | > 100 µM (inactive) | > 100 µM (inactive) | > 100 µM (inactive) | > 100 µM (inactive) | > 100 µM (inactive) | > 100 µM (inactive) | > 100 µM (inactive) | > 100 µM (inactive) | 76.7 µM (inactive) | > 100 µM (inactive) | > 100 µM (inactive) | > 100 µM (inactive) | > 100 µM (inactive) | > 100 µM (inactive)
CN1CCN(C2=C(Cl)C(=O)c3c(O)ccc(O)c3C2=O)CC1 | 1.99 µM (inactive) | 2.03 µM (inactive) | 0.546 µM (active) | 1.92 µM (inactive) | 1.44 µM (inactive) | 0.61 µM (active) | 1.85 µM (inactive) | 0.995 µM (active) | 2.41 µM (inactive) | 0.217 µM (active) | 0.13 µM (active) | 0.243 µM (active) | 1.78 µM (inactive) | 0.502 µM (active) | 2.04 µM (inactive) | 1.32 µM (inactive) | 2 µM (inactive) | 0.214 µM (active) | 0.103 µM (active) | 1.94 µM (inactive)
O=C1C(Cl)=C(Cl)C(=O)N1c1ccc(F)cc1 [FLUOROIMIDE] | 20.8 µM (inactive) | 12.8 µM (inactive) | 13.7 µM (inactive) | > 67.9 µM (inactive) | 15.1 µM (inactive) | 17.5 µM (inactive) | 28.8 µM (inactive) | 19.7 µM (inactive) | 28.1 µM (inactive) | 5.11 µM (inactive) | 6.22 µM (inactive) | 3.81 µM (inactive) | 37.9 µM (inactive) | 38.3 µM (inactive) | 19.6 µM (inactive) | 14.7 µM (inactive) | 42.7 µM (inactive) | 17.9 µM (inactive) | 1.89 µM (inactive) | > 83.6 µM (inactive)
